Data published in patent publication US20240158446A1, “CYCLIC COMPOUND HAVING SELECTIVE INHIBITORY ACTION ON KRAS OVER HRAS AND NRAS” (CHUGAI SEIYAKU KABUSHIKI KAISHA, priority 2021, published 2024).
*1 amine or outer side, *2 acyl side, *3 side chain or, on linkers, in order; H or OH if unused. Where a SMILES comes first, the peptide text is derived from it. Bridges are numbered along the chain shown (N, C = ends). [ ]: non-standard residue; d: D form. hPhe(3,5-F2-4-CF3) = N[C@@H](CCc1cc(F)c(C(F)(F)F)c(F)c1)C(=O)O; NPrPhe(4-CF3) = CCCN[C@@H](Cc1ccc(C(F)(F)F)cc1)C(=O)O; NMeGly(cPent) = CN[C@H](C(=O)O)C1CCCC1; X8 = C[C@@](N[*:1])(C(=O)[*:2])C1CC1; NMeD = CN[C@@H](CC(=O)O)C(=O)O; NMeL = CN[C@@H](CC(C)C)C(=O)O; αMeV = CC(C)[C@](C)(N)C(=O)O; Sar = CNCC(=O)O

What was measured:
[1] = biological target: GDP-bound NRAS wild-type protein (Homo sapiens, UniProt P01111); assay: Binding to NRAS by surface plasmon resonance (SPR), Single Cycle Kinetics; conditions: SPR, GDP-bound NRAS wild-type protein vs GDP-bound KRAS wild-type protein
Sequence of GDP-bound NRAS wild-type protein (P01111 whole entry): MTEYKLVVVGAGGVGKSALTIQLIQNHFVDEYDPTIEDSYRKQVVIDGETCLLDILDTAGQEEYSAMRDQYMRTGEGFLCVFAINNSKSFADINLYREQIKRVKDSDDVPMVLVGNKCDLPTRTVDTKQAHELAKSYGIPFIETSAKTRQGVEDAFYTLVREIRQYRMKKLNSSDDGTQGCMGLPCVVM

[2] = biological target: GDP-bound HRAS wild-type protein (Homo sapiens, UniProt P01112); assay: Binding to HRAS by surface plasmon resonance (SPR), Single Cycle Kinetics; conditions: SPR, GDP-bound HRAS wild-type protein vs GDP-bound KRAS wild-type protein
Sequence of GDP-bound HRAS wild-type protein (P01112 whole entry): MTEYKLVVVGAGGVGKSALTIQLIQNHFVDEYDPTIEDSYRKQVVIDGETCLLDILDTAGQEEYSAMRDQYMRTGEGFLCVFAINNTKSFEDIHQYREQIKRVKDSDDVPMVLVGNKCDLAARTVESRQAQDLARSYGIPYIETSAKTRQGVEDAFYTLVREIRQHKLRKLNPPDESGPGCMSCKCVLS

[3] = biological target: GDP-bound KRAS wild-type protein (Homo sapiens, UniProt P01116); assay: Binding to KRAS by surface plasmon resonance (SPR), Single Cycle Kinetics; conditions: SPR Single Cycle Kinetics, GDP-bound KRAS wild-type protein, 1:1 binding model; read-out: KRAS KD
Sequence of GDP-bound KRAS wild-type protein (P01116 whole entry): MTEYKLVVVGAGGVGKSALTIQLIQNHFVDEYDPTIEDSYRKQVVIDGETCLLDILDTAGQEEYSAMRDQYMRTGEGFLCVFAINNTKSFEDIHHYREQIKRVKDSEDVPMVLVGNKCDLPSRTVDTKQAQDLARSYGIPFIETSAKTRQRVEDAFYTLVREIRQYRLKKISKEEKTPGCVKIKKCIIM

Row | Kd [3] [nM] | SMILES | NRAS/KRAS (ratio of KD value with respect to NRAS to KD value with respect to KRAS) [1] | HRAS/KRAS (ratio of KD value with respect to HRAS to KD value with respect to KRAS) [2]
1 | 1.3 | CCO[C@@H]1C[C@H]2C(=O)NC3(CC=CC3)C(=O)N(C)[C@@H](C3CCCC3)C(=O)N(C)[C@H](C(=O)N3CCOCC3)CC(=O)N(C)[C@@H](CC(C)C)C(=O)N[C@@H]([C@@H](C)CC)C(=O)N(C)CC(=O)N(C)[C@H]3CCCCCN(C3=O)[C@@H](Cc3ccc(C(F)(F)F)cc3)C(=O)N(C)CC(=O)N[C@@H](CCc3cc(F)c(C(F)(F)F)c(F)c3)C(=O)N2C1 [PP0727] | B (a compound having 3 or more and less than 10 is denoted as B) | B (a compound having 3 or more and less than 10 is denoted as B)
2 | 11 | CCO[C@@H]1C[C@H]2C(=O)NC3(CCC(F)(F)CC3)C(=O)N(C)[C@@H](C3CCCC3)C(=O)N(C)[C@H](C(=O)N3CCOCC3)CC(=O)N(C)[C@@H](CC(C)C)C(=O)N[C@@H]([C@@H](C)CC)C(=O)N(C)CC(=O)N(C)[C@H]3CCCCCN(C3=O)[C@@H](Cc3ccc(C(F)(F)F)cc3)C(=O)N(C)CC(=O)N[C@@H](CCc3cc(F)c(C(F)(F)F)c(F)c3)C(=O)N2C1 [PP0728] | B (a compound having 3 or more and less than 10 is denoted as B) | B (a compound having 3 or more and less than 10 is denoted as B)
3 | 0.094 | CCO[C@@H]1C[C@H]2C(=O)NC3(CCC3)C(=O)N(C)[C@@H](C3CCCC3)C(=O)N(C)[C@H](C(=O)N(C)C)CC(=O)N(C)[C@@H](C)C(=O)N[C@@H]([C@H](C)CC)C(=O)N(C)CC(=O)N(C)[C@H]3CCCCN(C3=O)[C@@H](Cc3ccc(C(F)(F)F)cc3)C(=O)N(C)CC(=O)N[C@@H](CCc3cc(F)c(C(F)(F)F)c(F)c3)C(=O)N2C1 [PP0730] | C (A compound having a KD ratio of 0.1 or more and less than 3 is denoted as C) | C (A compound having a KD ratio of 0.1 or more and less than 3 is denoted as C)
4 | 1.6 | CC[C@H](C)[C@@H]1NC(=O)[C@H](CC)N(C)C(=O)C[C@@H](C(=O)N(C)C)N(C)C(=O)[C@H](C2CCCC2)N(C)C(=O)C2(CCC2)NC(=O)[C@@H]2C[C@H](N3CCC(F)(F)CC3)CN2C(=O)[C@H](CCc2cc(F)c(C(F)(F)F)c(F)c2)NC(=O)CN(C)C(=O)[C@H](Cc2ccc(C(F)(F)F)cc2)N2CCCCC[C@@H](C2=O)N(C)C(=O)CN(C)C1=O [PP0731] | B (a compound having 3 or more and less than 10 is denoted as B) | B (a compound having 3 or more and less than 10 is denoted as B)
5 | 0.039 | CC[C@H](C)[C@@H]1NC(=O)[C@H](CC)N(C)C(=O)C[C@@H](C(=O)N(C)C)N(C)C(=O)[C@H](C2CCCC2)N(C)C(=O)C2(CCC2)NC(=O)[C@@H]2C[C@H](N3CCC(F)(F)CC3)CN2C(=O)[C@H](CCc2cc(F)c(C(F)(F)F)c(F)c2)NC(=O)CN(C)C(=O)[C@H](Cc2ccc(C(F)(F)F)cc2)N2CCCC[C@@H](C2=O)N(C)C(=O)CN(C)C1=O [PP0732] | C (A compound having a KD ratio of 0.1 or more and less than 3 is denoted as C) | B (a compound having 3 or more and less than 10 is denoted as B)
6 | 0.77 | CC[C@H](C)[C@@H]1NC(=O)[C@H](CC)N(C)C(=O)C[C@@H](C(=O)N(C)C)N(CC)C(=O)[C@H](C2CCCC2)N(C)C(=O)C2(CCC2)NC(=O)[C@@H]2C[C@@H](N3CCC(F)(F)CC3)CN2C(=O)[C@H](CCc2cc(F)c(C(F)(F)F)c(F)c2)NC(=O)CN(C)C(=O)[C@H](Cc2ccc(C(F)(F)F)cc2)N2CCCC[C@@H](C2=O)N(C)C(=O)CN(C)C1=O [PP0733] | B (a compound having 3 or more and less than 10 is denoted as B) | B (a compound having 3 or more and less than 10 is denoted as B)
7 | 0.38 | CCCN1C(=O)CN(C)C(=O)CN(C)C(=O)[C@H]([C@@H](C)CC)NC(=O)[C@H](CC(C)C)N(C)C(=O)C[C@@H](C(=O)N(C)C)N(C)C(=O)[C@H](C2CCCC2)N(C)C(=O)[C@](C)(C2CC2)NC(=O)[C@@H]2CCCN2C(=O)[C@H](CCc2cc(F)c(C(F)(F)F)c(F)c2)NC(=O)CN(C)C(=O)[C@@H]1Cc1ccc(C(F)(F)F)cc1 [PP0734] ([NMeL]I[Sar][Sar][NPrPhe(4-CF3)][Sar][hPhe(3,5-F2-4-CF3)]P[X8][NMeGly(cPent)][NMeD]-NMe2; lactam N-11) | B (a compound having 3 or more and less than 10 is denoted as B) | C (A compound having a KD ratio of 0.1 or more and less than 3 is denoted as C)
8 | 0.27 | CCCN1C(=O)CN(C)C(=O)CN(C)C(=O)[C@H]([C@@H](C)CC)NC(=O)[C@H](CC(C)C)N(C)C(=O)C[C@@H](C(=O)N(C)C)N(C)C(=O)[C@H](C2CCCC2)N(C)C(=O)[C@](C)(C(C)C)NC(=O)[C@@H]2CCCN2C(=O)[C@H](CCc2cc(F)c(C(F)(F)F)c(F)c2)NC(=O)CN(C)C(=O)[C@@H]1Cc1ccc(C(F)(F)F)cc1 [PP0735] ([NMeL]I[Sar][Sar][NPrPhe(4-CF3)][Sar][hPhe(3,5-F2-4-CF3)]P[αMeV][NMeGly(cPent)][NMeD]-NMe2; lactam N-11) | B (a compound having 3 or more and less than 10 is denoted as B) | C (A compound having a KD ratio of 0.1 or more and less than 3 is denoted as C)

Continued, compound first:

Row | SMILES | Kd [3] [nM] | NRAS/KRAS (ratio of KD value with respect to NRAS to KD value with respect to KRAS) [1] | HRAS/KRAS (ratio of KD value with respect to HRAS to KD value with respect to KRAS) [2]
9 | CCO[C@@H]1C[C@H]2C(=O)NC3(CCC3)C(=O)N(C)[C@@H](C3CCCC3)C(=O)N(C)[C@H](C(=O)N3CCOCC3)CC(=O)N(C)[C@@H](COC)C(=O)N[C@@H]([C@@H](C)CC)C(=O)N(C)CC(=O)N(C)[C@H]3CCCCN(C3=O)[C@@H](Cc3ccc(C(F)(F)F)cc3)C(=O)N(C)CC(=O)N[C@@H](CCc3cc(F)c(C(F)(F)F)c(F)c3)C(=O)N2C1 [PP0719] | 0.02 | C (A compound having a KD ratio of 0.1 or more and less than 3 is denoted as C) | B (a compound having 3 or more and less than 10 is denoted as B)
10 | CCO[C@@H]1C[C@H]2C(=O)NC3(CCC3)C(=O)N(C)[C@@H](C3CCCC3)C(=O)N(C)[C@H](C(=O)N3CCOCC3)CC(=O)N(C)[C@@H](CCOC)C(=O)N[C@@H]([C@@H](C)CC)C(=O)N(C)CC(=O)N(C)[C@H]3CCCCN(C3=O)[C@@H](Cc3ccc(C(F)(F)F)cc3)C(=O)N(C)CC(=O)N[C@@H](CCc3cc(F)c(C(F)(F)F)c(F)c3)C(=O)N2C1 [PP0720] | 0.036 | C (A compound having a KD ratio of 0.1 or more and less than 3 is denoted as C) | B (a compound having 3 or more and less than 10 is denoted as B)
11 | CCO[C@@H]1C[C@H]2C(=O)NC3(CCC3)C(=O)N(C)[C@@H](C3CCCC3)C(=O)N(C)[C@H](C(=O)N3CCOCC3)CC(=O)N(C)C[C@@H](C)C(=O)N[C@@H]([C@@H](C)CC)C(=O)N(C)CC(=O)N(C)[C@H]3CCCCN(C3=O)[C@@H](Cc3ccc(C(F)(F)F)cc3)C(=O)N(C)CC(=O)N[C@@H](CCc3cc(F)c(C(F)(F)F)c(F)c3)C(=O)N2C1 [PP0721] | 11 | B (a compound having 3 or more and less than 10 is denoted as B) | B (a compound having 3 or more and less than 10 is denoted as B)
12 | CCO[C@@H]1C[C@H]2C(=O)NC3(CC(C)(C)C3)C(=O)N(C)[C@@H](C3CCCC3)C(=O)N(C)[C@H](C(=O)N(C)C)CC(=O)N(C)[C@@H](C)C(=O)N[C@@H]([C@@H](C)CC)C(=O)N(C)CC(=O)N(C)[C@H]3CCCCCN(C3=O)[C@@H](Cc3ccc(C(F)(F)F)cc3)C(=O)N(C)CC(=O)N[C@@H](CCc3cc(F)c(C(F)(F)F)c(F)c3)C(=O)N2C1 [PP0723] | 0.47 | B (a compound having 3 or more and less than 10 is denoted as B) | B (a compound having 3 or more and less than 10 is denoted as B)
13 | CCO[C@@H]1C[C@H]2C(=O)NC3(CCC(F)(F)CC3)C(=O)N(C)[C@@H](C3CCCC3)C(=O)N(C)[C@H](C(=O)N(C)C)CC(=O)N(C)[C@@H](C)C(=O)N[C@@H]([C@@H](C)CC)C(=O)N(C)CC(=O)N(C)[C@H]3CCCCCN(C3=O)[C@@H](Cc3ccc(C(F)(F)F)cc3)C(=O)N(C)CC(=O)N[C@@H](CCc3cc(F)c(C(F)(F)F)c(F)c3)C(=O)N2C1 [PP0725] | 5 | B (a compound having 3 or more and less than 10 is denoted as B) | B (a compound having 3 or more and less than 10 is denoted as B)
14 | CCO[C@@H]1C[C@H]2C(=O)NC3(CC(C)(C)C3)C(=O)N(C)[C@@H](C3CCCC3)C(=O)N(C)[C@H](C(=O)N3CCOCC3)CC(=O)N(C)[C@@H](CC(C)C)C(=O)N[C@@H]([C@@H](C)CC)C(=O)N(C)CC(=O)N(C)[C@H]3CCCCCN(C3=O)[C@@H](Cc3ccc(C(F)(F)F)cc3)C(=O)N(C)CC(=O)N[C@@H](CCc3cc(F)c(C(F)(F)F)c(F)c3)C(=O)N2C1 [PP0726] | 1.1 | B (a compound having 3 or more and less than 10 is denoted as B) | B (a compound having 3 or more and less than 10 is denoted as B)
